{"source": "patent US20250215052A1", "about": "“INHIBITORS OF PICK1 AND USES THEREOF” (University of Copenhagen, priority 2018, published 2025)", "tested_on": "PICK1", "experiment": "Peptide accumulation in striatal neurons with PICK1 knock down or replacement", "assay_type": "cell-based, rat", "conditions": "5 nM, 1 hour", "from_the_text": "For shRNA-mediated knock down and replacement studies of PICK1, striatal neurons were transduced at 14 DIV with three different lentivirus; FUGWH1sh18GFPPICK1 (GFP-PICK1WT), FUGWH1sh18eGFP (GFP-sh18) or FUGWH1sh18deleGFP (GFP). The replacement plasmid GFP-PICK1WT expresses a short hairpin (sh18) that targets endogenous PICK1 and a resistant eGFP tagged PICK1. The GFP control vector (GFP) was created by removing the short hairpin (Holst et al., 2013, Jensen et al., 2018). Lentiviruses were produced as described previously (Rasmussen et al., 2009).\nNeurons were rinsed in PBS and blocked in 0.05% Triton-X100 with 5% goat serum for 20 min-at room temperature. Subsequently, neurons were labelled with rabbit anti-DARRP32 (1:800) and chicken anti-GFP (1:2000) for 1 hour at room temperature, before incubation with 1:500 goat anti-rabbit Alexa-647 and goat anti-chicken Alexa-488 secondary antibodies.\nImages for quantification of peptide were acquired with a Zeiss LSM 710 laser-scanning microscopy. Quantification of the TMR-TAT-P4-(C5)2 intensity was performed by defining each neuron as a region of interest. The mean intensity values obtained from each neuron were subsequently normalized to the average of the intensity values of the GFP transduced neurons", "data": [{"substance": "TAMRA-YGRKKRRQRRR-PEG4-(HWLKV)2 [TMR-TAT-P4-(C5)2]", "values": [{"measurement": "peptide signal in sh18 + GFP-PICK1 neurons vs control (GFP)", "result": "significantly increased"}]}]}
